Calls of active or inactive are those of the source.
Assays:
Protein skinhead-1 = molecular target: T1, Protein skinhead-1 (Caenorhabditis elegans, UniProt P34707); type: functional
T1 sequence (P34707 whole entry): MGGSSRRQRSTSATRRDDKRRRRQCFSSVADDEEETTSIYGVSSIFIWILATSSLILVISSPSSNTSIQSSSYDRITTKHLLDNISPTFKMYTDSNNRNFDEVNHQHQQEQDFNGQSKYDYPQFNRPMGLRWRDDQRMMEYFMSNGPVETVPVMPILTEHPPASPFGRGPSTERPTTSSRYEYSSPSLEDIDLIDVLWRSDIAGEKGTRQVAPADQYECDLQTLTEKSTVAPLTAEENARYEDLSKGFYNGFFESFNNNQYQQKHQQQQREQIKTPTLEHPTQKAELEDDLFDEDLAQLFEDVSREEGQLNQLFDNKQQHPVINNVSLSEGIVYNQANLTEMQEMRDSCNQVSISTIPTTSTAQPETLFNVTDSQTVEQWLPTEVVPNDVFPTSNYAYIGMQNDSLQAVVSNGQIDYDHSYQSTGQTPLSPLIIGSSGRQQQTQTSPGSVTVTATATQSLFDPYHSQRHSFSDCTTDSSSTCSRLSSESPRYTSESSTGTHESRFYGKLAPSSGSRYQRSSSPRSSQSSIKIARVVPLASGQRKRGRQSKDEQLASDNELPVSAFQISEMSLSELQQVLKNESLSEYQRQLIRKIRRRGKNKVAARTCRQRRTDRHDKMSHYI

[1] = molecular target: T2, Calpain-2 catalytic subunit (Sus scrofa, UniProt P43367); assay: pig calpain II inhibitor potency, dose response, biochemical, fluorogenic peptide substrate (AID 1420); type: functional
T2 sequence (P43367 whole entry): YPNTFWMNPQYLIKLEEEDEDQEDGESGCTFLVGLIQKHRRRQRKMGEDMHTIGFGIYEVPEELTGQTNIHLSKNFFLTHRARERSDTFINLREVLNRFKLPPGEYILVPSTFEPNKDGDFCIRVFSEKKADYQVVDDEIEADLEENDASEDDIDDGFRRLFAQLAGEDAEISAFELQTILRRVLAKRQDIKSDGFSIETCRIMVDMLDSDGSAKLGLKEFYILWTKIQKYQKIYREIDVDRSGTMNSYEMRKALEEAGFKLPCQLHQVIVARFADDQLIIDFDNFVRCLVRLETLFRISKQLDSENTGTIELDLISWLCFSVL

INS1 = assay: beta cell apoptosis inhibitors, cytokine rescue, dose response, luminescence, retest (AID 449756); type: functional, cell-based; details: Rattus norvegicus;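 note: cell death triggered by IL-1 beta plus TNF-alpha plus IFN-gamma mixture; protective hits raise ATP signal compared with cytokine alone wells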
Protein RecA = molecular target: T3, Protein RecA (Mycobacterium tuberculosis, UniProt P9WHJ3); assay: Fluorescence Cell-Free Homogeneous Dose Retest to Identify Inhibitors of RecA-Intein Splicing Activity. [Related pubchem assays (depositor defined):AID2097, AID2223, AID489010, AID492950]; type: functional
T3 sequence (P9WHJ3 whole entry): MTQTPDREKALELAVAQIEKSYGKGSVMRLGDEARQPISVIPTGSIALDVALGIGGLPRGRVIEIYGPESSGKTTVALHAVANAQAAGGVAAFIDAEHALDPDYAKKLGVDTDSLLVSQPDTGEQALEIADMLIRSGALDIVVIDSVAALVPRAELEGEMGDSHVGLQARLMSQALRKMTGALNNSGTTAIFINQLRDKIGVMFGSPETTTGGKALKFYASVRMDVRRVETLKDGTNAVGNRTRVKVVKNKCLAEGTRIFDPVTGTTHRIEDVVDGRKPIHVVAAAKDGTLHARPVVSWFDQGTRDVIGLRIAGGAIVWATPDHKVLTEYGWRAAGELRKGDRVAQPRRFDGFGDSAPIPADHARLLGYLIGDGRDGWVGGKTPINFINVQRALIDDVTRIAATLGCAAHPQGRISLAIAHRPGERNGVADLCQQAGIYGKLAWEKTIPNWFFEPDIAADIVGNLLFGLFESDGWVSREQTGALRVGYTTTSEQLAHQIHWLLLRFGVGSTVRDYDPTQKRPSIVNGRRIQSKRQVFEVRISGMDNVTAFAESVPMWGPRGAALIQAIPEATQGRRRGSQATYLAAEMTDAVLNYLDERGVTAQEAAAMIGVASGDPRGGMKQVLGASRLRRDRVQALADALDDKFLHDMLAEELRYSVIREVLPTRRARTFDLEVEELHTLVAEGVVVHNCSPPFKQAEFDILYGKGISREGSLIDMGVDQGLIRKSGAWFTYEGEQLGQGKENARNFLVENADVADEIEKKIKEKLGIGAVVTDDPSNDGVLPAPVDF

[2] = molecular target: T4, Histone-lysine N-methyltransferase NSD2 (Homo sapiens, UniProt O96028); type: biochemical
T4 sequence (O96028 whole entry): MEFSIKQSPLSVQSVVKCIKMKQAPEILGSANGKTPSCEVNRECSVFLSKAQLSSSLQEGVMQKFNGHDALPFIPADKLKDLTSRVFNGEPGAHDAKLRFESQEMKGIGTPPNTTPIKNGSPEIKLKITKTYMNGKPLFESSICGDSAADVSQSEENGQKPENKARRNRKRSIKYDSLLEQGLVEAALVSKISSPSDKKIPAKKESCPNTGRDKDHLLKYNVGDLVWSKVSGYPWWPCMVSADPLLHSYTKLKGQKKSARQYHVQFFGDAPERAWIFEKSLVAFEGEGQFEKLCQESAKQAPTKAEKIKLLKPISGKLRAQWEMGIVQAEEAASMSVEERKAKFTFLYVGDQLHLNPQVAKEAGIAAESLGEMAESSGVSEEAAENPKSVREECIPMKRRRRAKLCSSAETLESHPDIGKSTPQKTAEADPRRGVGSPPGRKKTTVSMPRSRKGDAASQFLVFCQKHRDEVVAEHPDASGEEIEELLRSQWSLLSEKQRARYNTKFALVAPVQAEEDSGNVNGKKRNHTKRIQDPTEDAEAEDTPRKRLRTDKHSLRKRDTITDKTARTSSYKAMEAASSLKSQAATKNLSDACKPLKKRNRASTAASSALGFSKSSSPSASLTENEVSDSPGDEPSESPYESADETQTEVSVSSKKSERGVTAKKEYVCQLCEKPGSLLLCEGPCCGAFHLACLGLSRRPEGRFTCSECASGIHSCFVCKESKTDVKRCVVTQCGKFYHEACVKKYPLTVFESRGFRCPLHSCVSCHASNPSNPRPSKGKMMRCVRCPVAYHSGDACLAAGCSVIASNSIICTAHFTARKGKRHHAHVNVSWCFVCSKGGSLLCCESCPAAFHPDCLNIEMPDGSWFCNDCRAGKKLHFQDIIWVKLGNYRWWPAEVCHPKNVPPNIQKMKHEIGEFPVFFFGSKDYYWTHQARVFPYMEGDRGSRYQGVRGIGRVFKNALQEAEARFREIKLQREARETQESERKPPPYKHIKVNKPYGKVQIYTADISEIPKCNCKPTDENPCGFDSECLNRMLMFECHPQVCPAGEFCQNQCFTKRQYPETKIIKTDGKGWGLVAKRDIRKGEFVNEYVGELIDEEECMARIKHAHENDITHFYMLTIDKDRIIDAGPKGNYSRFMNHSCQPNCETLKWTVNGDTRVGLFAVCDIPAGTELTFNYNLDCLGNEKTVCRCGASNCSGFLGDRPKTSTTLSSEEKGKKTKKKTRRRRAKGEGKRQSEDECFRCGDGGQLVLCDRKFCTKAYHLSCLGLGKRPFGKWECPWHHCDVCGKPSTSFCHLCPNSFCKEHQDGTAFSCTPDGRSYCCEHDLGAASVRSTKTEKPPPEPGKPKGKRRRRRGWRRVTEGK

[3] = molecular target: T5, Replicative DNA helicase DnaB (Mycobacterium tuberculosis, UniProt P9WMR3); assay: DnaB intein splicing inhibitors, dose response, biochemical, cell-free fluorescence (AID 449749); type: functional
T5 sequence (P9WMR3 whole entry): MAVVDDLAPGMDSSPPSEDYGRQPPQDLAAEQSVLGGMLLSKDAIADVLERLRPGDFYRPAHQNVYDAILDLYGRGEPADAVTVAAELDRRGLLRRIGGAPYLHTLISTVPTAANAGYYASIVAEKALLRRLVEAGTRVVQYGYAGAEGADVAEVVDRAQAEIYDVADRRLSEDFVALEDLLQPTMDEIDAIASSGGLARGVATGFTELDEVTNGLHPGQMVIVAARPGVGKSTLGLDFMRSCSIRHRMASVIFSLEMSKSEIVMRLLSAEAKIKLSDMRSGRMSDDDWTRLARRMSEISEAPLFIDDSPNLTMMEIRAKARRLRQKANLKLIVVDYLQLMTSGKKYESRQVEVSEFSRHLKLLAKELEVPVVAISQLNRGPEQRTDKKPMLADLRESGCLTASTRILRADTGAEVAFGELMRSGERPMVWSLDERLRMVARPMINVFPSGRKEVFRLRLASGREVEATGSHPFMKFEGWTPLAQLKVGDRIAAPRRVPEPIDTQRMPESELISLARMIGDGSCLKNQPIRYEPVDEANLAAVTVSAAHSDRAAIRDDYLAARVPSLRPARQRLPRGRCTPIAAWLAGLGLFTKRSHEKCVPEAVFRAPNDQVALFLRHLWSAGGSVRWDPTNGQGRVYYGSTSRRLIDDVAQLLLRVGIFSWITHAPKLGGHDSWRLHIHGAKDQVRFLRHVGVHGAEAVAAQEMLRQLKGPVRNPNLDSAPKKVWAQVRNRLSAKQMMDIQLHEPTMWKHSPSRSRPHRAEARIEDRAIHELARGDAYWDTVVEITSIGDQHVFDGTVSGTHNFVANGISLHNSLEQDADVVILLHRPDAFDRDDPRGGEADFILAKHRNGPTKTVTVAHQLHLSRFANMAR

Fatty acid synthase [4] = molecular target: T6, Fatty acid synthase (Homo sapiens, UniProt P49327); assay: FAS thioesterase domain inhibitors, dose response, biochemical, kinetic fluorescence intensity (AID 624326); type: functional;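 note: rate of fluorescence rise from hydrolysis of a fluorogenic O-methyl fluorescein ester substrate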
Fatty acid synthase [5] = molecular target: T6, Fatty acid synthase; assay: FAS thioesterase domain inhibitors, dose response, biochemical, endpoint fluorescence intensity, uHTS hits (AID 624327); type: functional;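 note: fluorescence from hydrolysis of an O-methyl fluorescein acyl ester substrate by the enzyme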
[6] = molecular target: T7, Ubiquitin-conjugating enzyme E2 N (Homo sapiens, UniProt P61088); type: functional;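 note: Dose-response confirmation in a TR-FRET assay detecting UBC13-driven polyubiquitin chain formation, inhibition measured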
T7 sequence (P61088 whole entry): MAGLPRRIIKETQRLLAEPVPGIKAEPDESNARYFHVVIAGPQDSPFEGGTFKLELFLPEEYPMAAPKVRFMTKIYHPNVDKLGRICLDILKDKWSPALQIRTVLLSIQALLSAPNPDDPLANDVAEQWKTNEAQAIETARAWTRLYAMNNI

[7] = Luminescence Cell-Based Dose Retest to Confirm Inhibitors of Cancer Stem Cells. [Related pubchem assays (depositor defined):AID2717, AID2721]; type: functional, Homo sapiens; details: Homo sapiens
Nonstructural protein 1 = Nonstructural protein 1 (Influenza A virus, UniProt Q194T2); type: functional, Influenza A virus (A/California/07/2009(H1N1))
Vero = assay: cells; type: functional; details: Chlorocebus sabaeus

Nonstructural protein 1, sequence (Q194T2 whole entry): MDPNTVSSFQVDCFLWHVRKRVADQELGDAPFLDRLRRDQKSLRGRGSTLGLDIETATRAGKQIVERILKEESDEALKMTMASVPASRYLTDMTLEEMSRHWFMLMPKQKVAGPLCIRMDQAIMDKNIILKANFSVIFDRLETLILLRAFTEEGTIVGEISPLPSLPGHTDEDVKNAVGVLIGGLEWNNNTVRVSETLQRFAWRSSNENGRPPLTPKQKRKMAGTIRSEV
T6 sequence (P49327 whole entry, the tested form may be a part): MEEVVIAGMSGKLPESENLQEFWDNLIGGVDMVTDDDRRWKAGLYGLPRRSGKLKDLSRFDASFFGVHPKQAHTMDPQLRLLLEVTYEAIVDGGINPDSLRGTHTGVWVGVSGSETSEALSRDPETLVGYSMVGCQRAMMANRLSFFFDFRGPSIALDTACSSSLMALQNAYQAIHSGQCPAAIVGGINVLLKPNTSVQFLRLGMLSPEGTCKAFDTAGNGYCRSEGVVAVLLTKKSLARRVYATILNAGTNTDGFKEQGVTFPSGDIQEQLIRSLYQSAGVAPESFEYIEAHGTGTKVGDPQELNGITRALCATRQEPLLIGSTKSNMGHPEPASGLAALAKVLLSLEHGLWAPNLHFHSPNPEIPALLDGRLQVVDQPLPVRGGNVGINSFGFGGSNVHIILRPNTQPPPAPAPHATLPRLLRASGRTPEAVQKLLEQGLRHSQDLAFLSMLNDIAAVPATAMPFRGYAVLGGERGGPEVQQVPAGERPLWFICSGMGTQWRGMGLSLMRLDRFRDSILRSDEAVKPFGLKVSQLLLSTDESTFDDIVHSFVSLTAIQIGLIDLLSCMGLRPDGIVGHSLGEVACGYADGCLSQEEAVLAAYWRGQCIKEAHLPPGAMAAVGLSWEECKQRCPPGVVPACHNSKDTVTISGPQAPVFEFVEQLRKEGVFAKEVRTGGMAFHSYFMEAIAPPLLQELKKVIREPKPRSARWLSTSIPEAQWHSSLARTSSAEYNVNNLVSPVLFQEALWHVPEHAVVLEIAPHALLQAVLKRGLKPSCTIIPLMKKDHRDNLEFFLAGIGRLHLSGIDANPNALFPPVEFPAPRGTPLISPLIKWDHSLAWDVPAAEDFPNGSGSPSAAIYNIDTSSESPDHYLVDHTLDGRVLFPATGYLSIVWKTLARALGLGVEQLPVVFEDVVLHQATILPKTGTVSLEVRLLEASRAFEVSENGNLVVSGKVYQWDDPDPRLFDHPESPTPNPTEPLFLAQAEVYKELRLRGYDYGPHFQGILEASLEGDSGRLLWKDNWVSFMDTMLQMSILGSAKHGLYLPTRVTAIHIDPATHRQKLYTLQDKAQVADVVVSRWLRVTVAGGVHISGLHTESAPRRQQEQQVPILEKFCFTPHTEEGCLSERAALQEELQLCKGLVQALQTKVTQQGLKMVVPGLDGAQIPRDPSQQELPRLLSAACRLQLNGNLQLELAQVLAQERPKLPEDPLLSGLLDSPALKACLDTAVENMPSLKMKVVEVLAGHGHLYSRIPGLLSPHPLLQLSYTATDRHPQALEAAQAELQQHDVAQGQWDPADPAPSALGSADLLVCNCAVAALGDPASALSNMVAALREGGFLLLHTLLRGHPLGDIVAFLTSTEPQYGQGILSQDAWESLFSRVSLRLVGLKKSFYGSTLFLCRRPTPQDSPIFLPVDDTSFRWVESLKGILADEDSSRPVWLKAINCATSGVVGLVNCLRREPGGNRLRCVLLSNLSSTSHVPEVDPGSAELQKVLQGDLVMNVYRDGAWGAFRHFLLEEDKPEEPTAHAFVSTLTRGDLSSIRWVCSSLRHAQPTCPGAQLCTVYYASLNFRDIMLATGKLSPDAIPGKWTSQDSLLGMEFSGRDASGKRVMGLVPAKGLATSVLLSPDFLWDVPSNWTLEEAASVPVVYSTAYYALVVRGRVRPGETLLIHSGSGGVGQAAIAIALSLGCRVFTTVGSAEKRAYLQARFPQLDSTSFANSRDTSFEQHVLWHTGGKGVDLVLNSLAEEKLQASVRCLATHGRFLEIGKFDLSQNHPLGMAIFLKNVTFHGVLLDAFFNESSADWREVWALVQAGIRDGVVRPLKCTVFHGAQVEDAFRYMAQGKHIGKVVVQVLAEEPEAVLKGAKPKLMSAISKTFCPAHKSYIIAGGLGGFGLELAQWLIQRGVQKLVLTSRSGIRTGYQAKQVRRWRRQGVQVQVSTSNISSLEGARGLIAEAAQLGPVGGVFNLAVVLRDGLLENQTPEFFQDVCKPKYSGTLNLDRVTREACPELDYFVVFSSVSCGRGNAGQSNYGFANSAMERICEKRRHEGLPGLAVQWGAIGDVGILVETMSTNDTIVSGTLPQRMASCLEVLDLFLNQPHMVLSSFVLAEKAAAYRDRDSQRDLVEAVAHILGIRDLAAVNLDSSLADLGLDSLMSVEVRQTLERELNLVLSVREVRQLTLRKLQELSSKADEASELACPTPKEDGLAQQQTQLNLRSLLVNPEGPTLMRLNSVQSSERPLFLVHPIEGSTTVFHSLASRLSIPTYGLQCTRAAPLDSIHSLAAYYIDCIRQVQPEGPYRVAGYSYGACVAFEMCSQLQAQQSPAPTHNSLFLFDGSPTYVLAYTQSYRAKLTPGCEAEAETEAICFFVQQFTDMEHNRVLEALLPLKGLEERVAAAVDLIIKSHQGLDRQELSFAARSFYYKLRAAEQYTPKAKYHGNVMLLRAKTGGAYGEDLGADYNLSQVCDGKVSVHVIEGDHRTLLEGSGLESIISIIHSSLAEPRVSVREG

In the case of `O=C(Nc1cccc(Cl)c1)c1cc(-c2ccco2)on1`, the IC50 (Protein skinhead-1) is reported as > 100 µM (inactive).
In the case of `Cc1cc2cc(CNC(=O)C3CC3)ccc2n1C`, the IC50 (Protein skinhead-1) is reported as > 100 µM (inactive).
For `CCOc1ccc(OCC)c(S(=O)(=O)NCCOC23CC4CC(CC(C4)C2)C3)c1`, the IC50 [1] was 8.71 µM (not active) and the AC50 (INS1) was 8.76 µM (active).
With `O=C(N=Nc1c(O)[nH]c2ccc(Cl)cc12)c1cc(-c2cccs2)nc2ccccc12` the IC50 [1] was 10.3 µM (not active).
For `COc1cc(NC(C)CCCN)c2ncccc2c1Oc1ccccc1` (stereo not given), the EC50 (Protein RecA) was 7.94 µM (active), the AC50 [2] was 0.466 µM (active) and the AC50 [3] was > 380 µM (inactive).
With `CCOc1ccc(NS(=O)(=O)c2ccc(NC(=S)NC(=O)CC(C)C)cc2)cc1` the IC50 [1] was 6.89 µM (not active).
For `Cc1cc2cc(CN=C(S)NCc3ccccc3)ccc2n1C`, the IC50 (Protein skinhead-1) was > 100 µM (inactive).
With `c1ccc(CSc2ncnc3sccc23)cc1` the IC50 (Protein skinhead-1) was 92.7 µM (inactive).
For `c1ccc(SCc2cc(-c3ccccc3)no2)cc1`, the IC50 (Protein skinhead-1) was 17.6 µM (active).
For `O=C(O)c1ccc(CSc2nc[nH]n2)cc1`, the IC50 [1] was < 0.4 µM (not active).
In the case of `CC(=O)NNc1nc(-c2ccccc2)cs1`, the IC50 (Fatty acid synthase [4]) is reported as 18.2 µM (active) and the IC50 (Fatty acid synthase [5]) is reported as 18.6 µM (active).
With `Cc1ccc(C(C(=O)NCC2CCCO2)N(C(=O)c2snc(C(N)=O)c2N)c2ccc(F)cc2)o1` (stereo not given) the IC50 [6] was > 20 µM (inactive).
For `CC(=O)c1ccc(Sc2ccc(C(C)=O)cc2)cc1`, the IC50 [6] was > 20 µM (inactive).
In the case of `Cc1cc(Br)cn2c(Cc3ccsc3)c(-c3ccccc3)nc12`, the IC50 (Protein skinhead-1) is reported as > 100 µM (inactive).
For `COc1cc2sc(-c3ccccc3OC)c(-c3ccc(OCCN4CCCCC4)cc3)c2cc1OC`, the AC50 (INS1) was 7.69 µM (active), the AC50 [7] was 6.45 µM (active) and the IC50 [6] was > 20 µM (inactive).
For `Cc1ccc(N=Nc2ccc3ccccc3c2O)cc1`, the IC50 (Nonstructural protein 1) was 5.83 µM (active).
In the case of `COCCOc1ccc(C(F)(F)F)cc1NC(=O)COC(=O)c1cc([N+](=O)[O-])ccc1N1CCOCC1`, the IC50 (Fatty acid synthase [4]) is reported as 6.42 µM (active) and the IC50 (Fatty acid synthase [5]) is reported as 5.58 µM (active).
For `Cc1cc(C)c(NC(=S)NC(=O)c2ccc(-c3ccccc3)cc2)c(C)c1`, the IC50 [1] was 12.4 µM (not active).
For `CC(C)Oc1ccccc1/C=N/Nc1ccccc1[N+](=O)[O-]`, the IC50 (Nonstructural protein 1) was 31.2 µM (active).
With `CCN1CCN(Cc2ccc(NC(=O)c3cc(NC(=O)c4cnn(-c5ccccc5)c4N)cc(OC)c3)cc2C(F)(F)F)CC1` the AC50 (INS1) was 19.6 µM (active), the AC50 [7] was 11.7 µM (active) and the IC50 [6] was > 20 µM (inactive).
With `CCCOc1ccc(NC(=O)CC2C(=O)N(C)C(=S)N2Cc2cccs2)cc1` (stereo not given) the IC50 (Fatty acid synthase [4]) was 7.42 µM (active) and the IC50 (Fatty acid synthase [5]) was 9.62 µM (active).
In the case of `COc1ccc(OC)c(NC2c3ccccc3C(=O)N2Cc2ccc3c(c2)OCO3)c1` (stereo not given), the IC50 (Nonstructural protein 1) is reported as 57.5 µM (active).
In the case of `O=C(COC(=O)c1cc([N+](=O)[O-])ccc1NCc1ccccc1)NC1CCCCC1`, the IC50 (Fatty acid synthase [4]) is reported as 1.64 µM (active), the CC50 (Vero) is reported as > 25 µM (active) and the IC50 (Fatty acid synthase [5]) is reported as 1.31 µM (active).
